Measurements: US7006929B2, “Signal detecting sensor provided with multi-electrode” (Matsushita Electric Industrial Co., Ltd., priority 2001, dated 2006)

Tested on: artificially reconstructed neural cell network (rat cerebral cortex neurons)
Assay: stimulus transmission in reconstructed neural cell network on 64-electrode sensor
Format: cell-based
Conditions: 40 μM, treated for 10 minutes; constant voltage stimulus at one electrode (row 5, column 5)
Description: Neurons were prepared from the cerebral cortex of gestation day 17 rat embryos and were suspended in Dulbecco's modified medium, and were dispensed into each container of a sensor comprising 64 electrodes and containers as shown in FIG. 3 at a concentration of 5×10^5 cells/ml, followed by culturing for two weeks. As a result, an artificial neural cell network was reconstructed on the sensor. The sensor containing the reconstructed neural cell network was used as follows. An apparatus having the configuration of FIG. […] The transmission of the stimulus was measured by detecting cell potentials at the remaining 63 electrodes. […] A neural cell network reconstructed as in Examples 1 and 2 was treated with 40 μM DNQX (6,7-Dinitroquinoxaline-2,3(1H,4H)-dione) for 10 minutes. As in Example 2, a constant voltage stimulus was applied to a cell on a sensor. The transmission of the stimulus was measured by detecting cell potentials at the remaining 63 electrodes.

O=c1[nH]c2cc([N+](=O)[O-])c([N+](=O)[O-])cc2[nH]c1=O [DNQX, 6,7-Dinitroquinoxaline-2,3(1H,4H)-dione]
response (cell potentials) at the remaining 63 electrodes to constant voltage stimulus: a response was not observed at any of the electrodes
